Measured values from ChEMBL document CHEMBL4145634, “Discovery of Janus Kinase 2 (JAK2) and Histone Deacetylase (HDAC) Dual Inhibitors as a Novel Strategy for the Combinational Treatment of Leukemia and Invasive Fungal Infections” (J Med Chem, 2018).
In brackets after ≈: the same amount, converted by molar mass.

Legend:
Candida albicans [1] = assay: microbe, parasite or virus in culture; format: functional; conditions: Candida albicans, 0710922, 48 h
Description: Antifungal activity against FLC resistant Candida albicans 0710922 after 48 hrs in presence of fluconazol by checkerboard microdilution method

Candida albicans [2] = assay: microbe, parasite or virus in culture; format: functional; conditions: Candida albicans, 0304103, 48 h
Description: Antifungal activity against FLC resistant Candida albicans 0304103 after 48 hrs by checkerboard microdilution method

Candida albicans [3] = assay: microbe, parasite or virus in culture; format: functional; conditions: Candida albicans, 0710922, 48 h; remark: listed apart in the source
Description: Antifungal activity against FLC resistant Candida albicans 0710922 assessed as fluconazol MIC50 after 48 hrs by checkerboard microdilution method

Histone deacetylase 1 = Histone deacetylase 1 (Homo sapiens, UniProt Q13547); assay: Inhibition of full length human recombinant HDAC1 expressed in baculovirus expression system using (Ac-Leu-Gly-Lys(Ac)-AMC as substrate preincubated for 5 mins followed by substrate addition and measured after 30 mins by fluorescence assay
Histone deacetylase 1, sequence (Q13547 whole entry): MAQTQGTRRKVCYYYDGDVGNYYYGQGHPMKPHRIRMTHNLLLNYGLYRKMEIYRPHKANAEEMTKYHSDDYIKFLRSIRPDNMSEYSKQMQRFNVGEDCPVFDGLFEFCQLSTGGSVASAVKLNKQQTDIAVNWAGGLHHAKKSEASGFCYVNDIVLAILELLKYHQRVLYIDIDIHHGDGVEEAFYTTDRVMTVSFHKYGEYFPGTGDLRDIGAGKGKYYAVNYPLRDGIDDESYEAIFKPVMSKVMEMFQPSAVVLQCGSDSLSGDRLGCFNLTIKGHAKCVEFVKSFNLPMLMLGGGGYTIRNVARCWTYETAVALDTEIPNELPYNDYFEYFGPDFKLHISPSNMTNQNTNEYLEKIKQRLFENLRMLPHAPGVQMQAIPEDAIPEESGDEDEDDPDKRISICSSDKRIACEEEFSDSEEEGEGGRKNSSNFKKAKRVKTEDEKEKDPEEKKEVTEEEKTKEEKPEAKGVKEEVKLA

K562 = assay: Antiproliferative activity against human K562 cells after 48 hrs by CCK-8 assay; format: functional, cell-based; conditions: K562, 48 h
Candida albicans [4] = assay: Antifungal activity against FLC resistant Candida albicans 100 after 48 hrs by checkerboard microdilution method; format: functional; conditions: Candida albicans, 100, 48 h
HL-60 = assay: Antiproliferative activity against human HL60 cells after 48 hrs by CCK-8 assay; format: functional, cell-based; conditions: HL-60, 48 h
HEL = assay: Antiproliferative activity against human HEL cells after 48 hrs by CCK-8 assay; format: functional, cell-based
Candida albicans [5] = assay: Synergistic antifungal activity against FLC resistant Candida albicans 0304103 assessed as FIC index after 48 hrs by checkerboard microdilution method; format: functional
Candida albicans [6] = assay: Antifungal activity against FLC resistant Candida albicans 100 after 48 hrs in presence of fluconazol by checkerboard microdilution method; format: functional; conditions: Candida albicans, 100, 48 h
Candida albicans [7] = assay: microbe, parasite or virus in culture; format: functional; conditions: Candida albicans, 0304103, 48 h; remark: listed apart in the source
Description: Antifungal activity against FLC resistant Candida albicans 0304103 after 48 hrs in presence of fluconazol by checkerboard microdilution method

Candida albicans [8] = assay: Synergistic antifungal activity against FLC resistant Candida albicans 100 assessed as FIC index after 48 hrs by checkerboard microdilution method; format: functional
[9] = target: Tyrosine-protein kinase JAK2 (Homo sapiens, UniProt O60674); assay: Inhibition of JAK2 (unknown origin) using FAM-labeled peptide as substrate preincubated for 10 mins followed by substrate addition and measured after 25 mins in presence of ATP
Tyrosine-protein kinase JAK2, sequence (O60674 whole entry): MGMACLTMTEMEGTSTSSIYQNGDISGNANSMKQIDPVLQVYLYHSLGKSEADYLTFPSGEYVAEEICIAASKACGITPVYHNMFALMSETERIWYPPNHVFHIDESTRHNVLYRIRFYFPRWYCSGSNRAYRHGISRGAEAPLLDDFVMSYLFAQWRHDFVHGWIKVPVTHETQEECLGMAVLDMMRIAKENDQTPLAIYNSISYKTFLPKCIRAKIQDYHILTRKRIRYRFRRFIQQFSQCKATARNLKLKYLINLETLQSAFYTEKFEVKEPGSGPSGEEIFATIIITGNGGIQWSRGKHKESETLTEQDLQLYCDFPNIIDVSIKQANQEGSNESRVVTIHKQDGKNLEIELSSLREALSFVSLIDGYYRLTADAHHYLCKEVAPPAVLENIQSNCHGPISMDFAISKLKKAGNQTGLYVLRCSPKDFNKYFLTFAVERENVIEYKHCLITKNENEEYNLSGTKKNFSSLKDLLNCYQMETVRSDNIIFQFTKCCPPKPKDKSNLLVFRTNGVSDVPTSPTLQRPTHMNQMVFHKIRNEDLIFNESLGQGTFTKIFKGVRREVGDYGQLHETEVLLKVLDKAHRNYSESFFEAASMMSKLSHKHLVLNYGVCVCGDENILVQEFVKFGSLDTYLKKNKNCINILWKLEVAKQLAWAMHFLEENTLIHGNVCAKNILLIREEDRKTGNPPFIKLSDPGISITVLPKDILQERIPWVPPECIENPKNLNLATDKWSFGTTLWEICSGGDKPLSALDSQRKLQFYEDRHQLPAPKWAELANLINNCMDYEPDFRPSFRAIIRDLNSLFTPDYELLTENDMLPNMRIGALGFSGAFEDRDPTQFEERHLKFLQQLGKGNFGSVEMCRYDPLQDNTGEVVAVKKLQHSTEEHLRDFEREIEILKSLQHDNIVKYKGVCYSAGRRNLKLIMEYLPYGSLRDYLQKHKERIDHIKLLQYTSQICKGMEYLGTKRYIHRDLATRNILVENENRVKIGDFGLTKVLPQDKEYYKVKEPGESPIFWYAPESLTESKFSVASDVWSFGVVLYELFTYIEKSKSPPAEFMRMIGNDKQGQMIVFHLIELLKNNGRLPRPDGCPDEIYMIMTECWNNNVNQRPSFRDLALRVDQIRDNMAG

Candida albicans [10] = assay: microbe, parasite or virus in culture; format: functional; conditions: Candida albicans, 0710922, 48 h; remark: listed apart in the source
Description: Antifungal activity against FLC resistant Candida albicans 0710922 after 48 hrs by checkerboard microdilution method

Candida albicans [11] = assay: Synergistic antifungal activity against FLC resistant Candida albicans 0710922 assessed as FIC index after 48 hrs by checkerboard microdilution method; format: functional
Candida albicans [12] = assay: microbe, parasite or virus in culture; format: functional; conditions: Candida albicans, 100, 48 h
Description: Antifungal activity against FLC resistant Candida albicans 100 assessed as fluconazol MIC50 after 48 hrs by checkerboard microdilution method

Candida albicans [13] = assay: microbe, parasite or virus in culture; format: functional; conditions: Candida albicans, 0304103, 48 h; remark: listed apart in the source
Description: Antifungal activity against FLC resistant Candida albicans 0304103 assessed as fluconazol MIC50 after 48 hrs by checkerboard microdilution method

Structure (SMILES)	MIC50 (Candida albicans [1])	MIC50 (Candida albicans [2])	MIC50 (Candida albicans [3])	IC50 (Histone deacetylase 1)	IC50 (K562)	MIC50 (Candida albicans [4])	IC50 (HL-60)	IC50 (HEL)	fractional inhibitory concentration index (FICI) (Candida albicans [5])	MIC50 (Candida albicans [6])	MIC50 (Candida albicans [7])	fractional inhibitory concentration index (FICI) (Candida albicans [8])	IC50 [9]	MIC50 (Candida albicans [10])	fractional inhibitory concentration index (FICI) (Candida albicans [11])	MIC50 (Candida albicans [12])	MIC50 (Candida albicans [13])
CS(=O)(=O)Nc1ccc(-c2ccnc(Nc3ccc(N4CCC(C(=O)NCCCCCCC(=O)NO)CC4)cc3)n2)cc1	32 µg/mL (≈ 52.5 µM)	> 64 µg/mL	0.25 µg/mL (≈ 0.41 µM)	0.25 µM	8.9 µM	> 64 µg/mL	12 µM	3.9 µM	0.13	8 µg/mL	8 µg/mL (≈ 13.1 µM)	0.13	0.002 µM	> 64 µg/mL	0.5	0.25 µg/mL (≈ 0.41 µM)	0.5 µg/mL (≈ 0.82 µM)
N#CCNC(=O)c1ccc(-c2ccnc(Nc3ccc(N4CCC(C(=O)Nc5ccc(C(=O)NO)cc5)CC4)cc3)n2)cc1	> 64 µg/mL	> 64 µg/mL	> 64 µg/mL	24 µM	> 50 µM	> 64 µg/mL	> 50 µM	> 50 µM	1.01	64 µg/mL	64 µg/mL (≈ 108 µM)	1.03	0.016 µM	> 64 µg/mL	>2	2 µg/mL (≈ 3.39 µM)	0.5 µg/mL (≈ 0.847 µM)
N#CCNC(=O)c1ccc(-c2ccnc(Nc3ccc(N4CCC(C(=O)NO)CC4)cc3)n2)cc1	64 µg/mL (≈ 136 µM)	> 64 µg/mL	1 µg/mL (≈ 2.12 µM)	2.7 µM	> 50 µM	> 64 µg/mL	> 50 µM	> 50 µM	0.13	2 µg/mL	8 µg/mL (≈ 17 µM)	0.039	0.004 µM	> 64 µg/mL	1.02	0.5 µg/mL (≈ 1.06 µM)	0.25 µg/mL (≈ 0.53 µM)
CS(=O)(=O)Nc1ccc(-c2ccnc(Nc3ccc(N4CCC(C(=O)NCc5ccc(C(=O)NO)cc5)CC4)cc3)n2)cc1	64 µg/mL (≈ 104 µM)	> 64 µg/mL	0.5 µg/mL (≈ 0.812 µM)	1.1 µM	10 µM	> 64 µg/mL	> 50 µM	6.3 µM	0.15	4 µg/mL	8 µg/mL (≈ 13 µM)	0.078	0.018 µM	> 64 µg/mL	1.01	1 µg/mL (≈ 1.62 µM)	2 µg/mL (≈ 3.25 µM)
CS(=O)(=O)Nc1ccc(-c2ccnc(Nc3ccc(N4CCC(C(=O)NO)CC4)cc3)n2)cc1	32 µg/mL (≈ 66.3 µM)	> 64 µg/mL	0.25 µg/mL (≈ 0.518 µM)	2.9 µM	18 µM	> 64 µg/mL	> 50 µM	> 50 µM	0.07	8 µg/mL	4 µg/mL (≈ 8.29 µM)	0.14	0.001 µM	> 64 µg/mL	0.51	1 µg/mL (≈ 2.07 µM)	0.5 µg/mL (≈ 1.04 µM)
CS(=O)(=O)Nc1ccc(-c2ccnc(Nc3ccc(N4CCC(C(=O)Nc5ccc(C(=O)NO)cc5)CC4)cc3)n2)cc1	> 64 µg/mL	> 64 µg/mL	> 64 µg/mL	0.38 µM	8.6 µM	> 64 µg/mL	11 µM	2 µM	>2	64 µg/mL	> 64 µg/mL	1.25	0.002 µM	> 64 µg/mL	>2	16 µg/mL (≈ 26.6 µM)	> 64 µg/mL
CS(=O)(=O)Nc1ccc(-c2ccnc(Nc3ccc(N4CCC(C(=O)NCCCC(=O)NO)CC4)cc3)n2)cc1	32 µg/mL (≈ 56.4 µM)	32 µg/mL (≈ 56.4 µM)	0.5 µg/mL (≈ 0.881 µM)	9.2 µM	12 µM	> 64 µg/mL	> 50 µM	12 µM	0.31	8 µg/mL	8 µg/mL (≈ 14.1 µM)	0.14	0.001 µM	> 64 µg/mL	0.51	1 µg/mL (≈ 1.76 µM)	4 µg/mL (≈ 7.05 µM)
CS(=O)(=O)Nc1ccc(-c2ccnc(Nc3ccc(N4CCC(C(=O)NCCCCCC(=O)NO)CC4)cc3)n2)cc1	64 µg/mL (≈ 107 µM)	32 µg/mL (≈ 53.7 µM)	64 µg/mL (≈ 107 µM)	0.35 µM	10 µM	32 µg/mL	37 µM	17 µM	0.5	16 µg/mL	16 µg/mL (≈ 26.9 µM)	0.5	0.003 µM	> 64 µg/mL	2	0.25 µg/mL (≈ 0.42 µM)	0.5 µg/mL (≈ 0.839 µM)
N#CCNC(=O)c1ccc(-c2ccnc(Nc3ccc(N4CCC(C(=O)Nc5ccc(/C=C/C(=O)NO)cc5)CC4)cc3)n2)cc1	16 µg/mL (≈ 25.9 µM)	> 64 µg/mL	2 µg/mL (≈ 3.24 µM)	5.1 µM	> 50 µM	> 64 µg/mL	> 50 µM	> 50 µM	0.078	64 µg/mL	4 µg/mL (≈ 6.49 µM)	1.02	0.015 µM	> 64 µg/mL	0.31	1 µg/mL (≈ 1.62 µM)	1 µg/mL (≈ 1.62 µM)
CS(=O)(=O)Nc1ccc(-c2ccnc(Nc3ccc(N4CCC(C(=O)Nc5ccccc5N)CC4)cc3)n2)cc1	> 64 µg/mL	> 64 µg/mL	> 64 µg/mL	2.1 µM	9.5 µM	> 64 µg/mL	16 µM	3.2 µM	>2	64 µg/mL	> 64 µg/mL	2	0.002 µM	> 64 µg/mL	>2	64 µg/mL (≈ 115 µM)	> 64 µg/mL
CS(=O)(=O)Nc1ccc(-c2ccnc(Nc3ccc(N4CCC(C(=O)NCCCCC(=O)NO)CC4)cc3)n2)cc1	32 µg/mL (≈ 55 µM)	32 µg/mL (≈ 55 µM)	0.5 µg/mL (≈ 0.86 µM)	2.2 µM	11 µM	> 64 µg/mL	> 50 µM	8.1 µM	0.5	16 µg/mL	16 µg/mL (≈ 27.5 µM)	0.26	0.001 µM	> 64 µg/mL	0.51	0.5 µg/mL (≈ 0.86 µM)	0.5 µg/mL (≈ 0.86 µM)
